Reference: patent EP4613738A1, “LIPID HAVING AMIDE AND ESTER FUNCTIONAL GROUPS, AND METHOD FOR PRODUCING SAME” (Samyang Holdings Corporation, priority 2022, dated 2024)

What was measured:
[1] = Particle characteristics of the prepared formulation by particle size analyzer (Dynamic Light Scattering, DLS); type: physicochemical; conditions: mRNA formulation; lipid compound:DMG-PEG:DSPC:Cholesterol=50:1.5:10:38.5; N/P ratio 10; buffer exchanged to PBS
Method: (§1) The required amounts of the raw materials were mixed in order to meet the N/P ratio (amine group of lipid/phosphate group of mRNA) of 10 and each compound of formulas A to V:DMG-PEG:DSPC:Cholesterol=50:1.5:10:38.5. Ethanol was added to the ethanol layer so that the molecular total of all raw materials was within 12.5 mM, and the aqueous phase and ethanol phase were mixed maintaining a volume ratio of 3:1. After the mixing, to reduce the total ethanol content, buffer exchange was performed as follows: The mixture solution was concentrated by centrifugation at 4,000 rpm to 1/3 using an Amicon-Ultra tube filter (Merk Millipore, UFC505096 or UFC805024, pore size: 50K, volume: 0.5 mL or 4 mL), then diluted with three times the volume of PBS and centrifuged to concentrate. This process was repeated six times to exchange the buffer.
(§2) The more concrete procedure is as follows: • 1) Two autoclaved tubes were prepared (tubes (A) and (B)). • 2) In tube (A), each compound of formulas A to V, DSPC, cholesterol and DMG-PEG in molar quantities calculated according to the experimental conditions were sequentially added and mixed by vortexing. • 3) In the ethanol phase, when necessary, ethanol was added so that the molecular total of all raw materials was within 12.5 mM. • 4) In tube (B), mRNA and 20 mM sodium acetate buffer (pH 4.6) (=prepared by diluting with 3M sodium acetate buffer to 20 mM and titrating to pH 4.6 using 1M HCl) were mixed. At that time, the ratio was calculated and added so that the aqueous phase was total three times the amount of the ethanol phase. • 5) Mixing of Tube (A) and Tube (B) was performed using a Microfluidics (Ignite, Precision Nanosystem) device. Microfluidics operating conditions were FRR (Flow Rate Ratio) of C:R=3:1 and TRR (Total Flow Rate) of 12 mL/min. • 6) The resulting mixture from step 5) was concentrated by centrifugation at 4,000 rpm to 1/3 using an Amicon-Ultra tube filter (50K), then diluted 3-fold with PBS and concentrated by centrifugation. This process was repeated 6 times for concentration to the desired volume.
(§3) • 1) For the prepared formulation, particle characteristics (i.e., Zeta-average particle size (Z-average), polydispersity index (PDI), and zeta-potential) were confirmed using a particle size analyzer (Dynamic Light Scattering, DLS), and the results are shown in Table 1 below. • 2) For the prepared formulation, mRNA encapsulation efficiency was confirmed through Ribo-green assay, and the results are shown in Table 1 below.

mRNA = mRNA encapsulation efficiency of the prepared formulation by Ribo-green assay; type: physicochemical; conditions: lipid compound:DMG-PEG:DSPC:Cholesterol=50:1.5:10:38.5, N/P ratio 10, buffer exchanged to PBS
Method: as §1, §2, §3

| SMILES | PDI (PI) [1] | Z-average [1] [nm] | Zeta-potential [1] [mV] | Encapsulation efficiency (mRNA) [%] |
| --- | --- | --- | --- | --- |
| CCCCCCC(CCCC)COC(=O)CCCCCNC(=O)CCN(C)CCCN(C)CCC(=O)NCCCCCC(=O)OCC(CCCC)CCCCCC (centres unmarked) [Example 4] | 0.231 ± 0.012 | 147.8 ± 0.979 | -7.87 ± 0.754 | > 93.75 |
| CCCCCCC(CCCCCC)COC(=O)CCCCCNC(=O)CCN(C)CCCN(C)CCC(=O)NCCCCCC(=O)OCC(CCCCCC)CCCCCC [Example 5] | 0.156 ± 0.009 | 137.5 ± 1.364 | -6.66 ± 0.365 | > 96.9 |
| CCCCOC(=O)CCCCCNC(=O)CCN(C)CCCN(C)CCC(=O)NCCCCCC(=O)OCCCC [Example 6] | 0.190 ± 0.011 | 125.9 ± 1.325 | -6.02 ± 2.949 | > 87.5 |
| CCCCCCCCCCC(CCCCCCCC)COC(=O)CCCCCNC(=O)CCN(C)CCCN(C)CCC(=O)NCCCCCC(=O)OCC(CCCCCCCC)CCCCCCCCCC (centres unmarked) [Example 7] | 0.215 ± 0.018 | 118.6 ± 2.099 | 2.04 ± 0.365 | > 93.75 |
| CCCCCCC(CCCCCC)COC(=O)CCCCCCCNC(=O)CCN(C)CCCN(C)CCC(=O)NCCCCCCCC(=O)OCC(CCCCCC)CCCCCC [Example 8] | 0.188 ± 0.007 | 110.3 ± 1.700 | 4.83 ± 0.301 | > 99.2 |
| CCCCCCCCC(CCCCCC)COC(=O)CCCCCNC(=O)CCN(C)CCCN(C)CCC(=O)NCCCCCC(=O)OCC(CCCCCC)CCCCCCCC (centres unmarked) [Example 10] | 0.171 ± 0.006 | 118.2 ± 1.473 | 6.72 ± 0.073 | > 94.1 |
| CCCCCCCCCCC(CCCCCCCC)COC(=O)CCCCCNC(=O)CCN(CCN)CCC(=O)NCCCCCC(=O)OCC(CCCCCCCC)CCCCCCCCCC (centres unmarked) [Example 14] | 0.166 ± 0.027 | 113.8 ± 0.502 | -10.39 ± 1.994 | > 93.75 |
| CCCCCCC(CCCCCC)COC(=O)CCCCCCCNC(=O)CCN(CCN)CCC(=O)NCCCCCCCC(=O)OCC(CCCCCC)CCCCCC [Example 15] | 0.186 ± 0.015 | 127.0 ± 0.325 | -0.40 ± 0.239 | > 93.75 |

The next lines start with the values.

| PDI (PI) [1] | Z-average [1] [nm] | Zeta-potential [1] [mV] | Encapsulation efficiency (mRNA) [%] | SMILES |
| --- | --- | --- | --- | --- |
| 0.128 ± 0.015 | 128.9 ± 4.714 | 0.50 ± 3.461 | > 93.75 | CCCCCCCCCCCCC(CCCCCCCCCC)COC(=O)CCCCCNC(=O)CCN(CCN)CCC(=O)NCCCCCC(=O)OCC(CCCCCCCCCC)CCCCCCCCCCCC (centres unmarked) [Example 16] |
| 0.167 ± 0.009 | 127.3 ± 0.955 | 17.22 ± 3.314 | > 93.75 | CCCCCCCCCOC(=O)CCCCCNC(=O)CCN(CCCN(C)C)CCC(=O)NCCCCCC(=O)OCCCCCCCCC [Example 17] |
| 0.199 ± 0.007 | 118.6 ± 0.565 | 10.96 ± 1.293 | > 93.75 | CCCCCCCCC(CCCCCC)COC(=O)CCCCCNC(=O)CCN(CCCN(C)C)CCC(=O)NCCCCCC(=O)OCC(CCCCCC)CCCCCCCC (centres unmarked) [Example 18] |
| 0.150 ± 0.022 | 146.7 ± 1.226 | -9.39 ± 0.137 | > 93.75 | CCCCCCCCC(CCCCCC)COC(=O)CCCCCNC(=O)CCN(CCC(=O)NCCCCCC(=O)OCC(CCCCCC)CCCCCCCC)CCN1CCOCC1 (centres unmarked) [Example 19] |
| 0.350 ± 0.009 | 120.0 ± 4.251 | 4.43 ± 0.746 | > 93.50 | CCCCC/C=C\C/C=C\CCCCCCCCOC(=O)CCCCCNC(=O)CCN(C)CCCN(C)CCC(=O)NCCCCCC(=O)OCCCCCCCC/C=C\C/C=C\CCCCC [Example 21] |
| 0.3042 ± 0.026 | 121.0 ± 4.06 | 3.56 ± 3.67 | > 93.20 | CCCCCCCCC(OC(=O)CCCCCNC(=O)CCN(C)CCCN(C)CCC(=O)NCCCCCC(=O)OC(CCCCCCCC)C1CC1)C1CC1 (centres unmarked) [Example 22] |
